Laboratory results as given in ChEMBL document CHEMBL4613209, “Quinolone hybrids and their anti-cancer activities: An overview” (Eur J Med Chem, 2019).

Each compound was assayed on HL-60 (assay: Cytotoxicity against human HL60 cells assessed as reduction in cell viability by MTT assay). Conditions: not given.
Format: functional, cell-based
With `O=C(O)c1cn(C2CC2)c2cc(N3CCNCC3)c(F)cc2c1=O` [CIPROFLOXACIN] the IC50 was over 100000 nM.

Each compound was assayed on HCT-116 (assay: Cytotoxicity against human HCT116 cells assessed as reduction in cell viability by SRB assay). Conditions: not given.
Format: functional, cell-based
With `O=C(CCCCCn1cc(C(=O)Nc2nc3ccccc3s2)c(=O)c2ccccc21)NO` the IC50 was 600 to 1000 nM. Work on `COc1ccc2c(c1)c(=O)c(C(=O)Nc1nc3ccccc3s1)cn2CCCCCC(=O)NO` yielded an IC50 of 600 to 16000 nM. `O=C(CCCCCn1cc(C(=O)Nc2nccs2)c(=O)c2ccccc21)NO` showed an IC50 of 5000 to 16000 nM. With `O=C(CCCCCn1cc(C(=O)Nc2nc3ccccc3s2)c(=O)c2cc(F)ccc21)NO` the IC50 was 600 to 16000 nM. Compound `Cn1nc(-c2ccccc2)cc1NC(=O)c1cn(CCCCCC(=O)NO)c2ccccc2c1=O` has an IC50 of 600 to 16000 nM. With `Cc1csc(NC(=O)c2cn(CCCCCC(=O)NO)c3ccccc3c2=O)n1` the IC50 was 2430 to 2900 nM. For `COc1ccc2c(c1)c(=O)c(C(=O)Nc1cc(-c3ccccc3)nn1C)cn2CCCCCC(=O)NO`, the IC50 was 600 to 16000 nM. Work on `CC(=O)n1nc2c(c1-c1cccs1)c(=O)[nH]c1ccccc12` yielded an IC50 of 160 to 300 nM. In the case of `CC(=O)n1cc2c(=O)[nH]c3ccccc3c2n1`, the IC50 is reported as 160 to 300 nM. For `COc1ccc(-c2c3c(=O)[nH]c4ccccc4c3nn2C(C)=O)cc1`, the IC50 was 160 to 300 nM.

Each compound was assayed on HL-60 (assay: Cytotoxicity against human HL60 cells assessed as reduction in cell viability). Conditions: not given.
Format: functional, cell-based
`O=C(O)c1cn(C2CC2)c2cc(N3CCNCC3)c(F)cc2c1=O` [CIPROFLOXACIN] was tested, and the IC50 was over 150000 nM.

The compounds below were run on L1210 (assay: Cytotoxicity against mouse L1210 cells assessed as reduction in cell viability by MTT assay). Conditions: not given.
Format: functional, cell-based
With `O=C(O)c1cn(C2CC2)c2cc(N3CCNCC3)c(F)cc2c1=O` [CIPROFLOXACIN] the IC50 was over 100000 nM.

Each compound was assayed on SW480 (assay: Cytotoxicity against human SW480 cells assessed as reduction in cell viability by MTT assay). Conditions: not given.
Format: functional, cell-based
Compound `O=C(O)c1cn(C2CC2)c2cc(N3CCNCC3)c(F)cc2c1=O` [CIPROFLOXACIN] has an IC50 of 137000 to 238000 nM. In the case of `CCn1cc(C(=O)O)c(=O)c2cc(F)c(N3CCNCC3)cc21` [NORFLOXACIN], the IC50 is reported as 137000 to 238000 nM.

These compounds were tested on A-431 (assay: Cytotoxicity against human A431 cells assessed as reduction in cell viability by MTT assay). Conditions: not given.
Format: functional, cell-based
`O=C(O)c1cn(C2CC2)c2cc(N3CCNCC3)c(F)cc2c1=O` [CIPROFLOXACIN] showed an IC50 of 137000 to 238000 nM. `CCn1cc(C(=O)O)c(=O)c2cc(F)c(N3CCNCC3)cc21` [NORFLOXACIN] showed an IC50 of 137000 to 238000 nM.

These compounds were tested on MCF7 (assay: Cytotoxicity against human MCF7 cells assessed as reduction in cell viability by MTT assay). Conditions: not given.
Format: functional, cell-based
`O=C(O)c1cn(C2CC2)c2cc(N3CCNCC3)c(F)cc2c1=O` [CIPROFLOXACIN] gave an IC50 of over 100000 nM. `CCn1cc(C(=O)O)c(=O)c2cc(F)c(N3CCNCC3)cc21` [NORFLOXACIN] gave an IC50 of 137000 to 238000 nM.

The compounds below were run on CHO (assay: Cytotoxicity against CHO cells assessed as reduction in cell viability). Conditions: Cricetulus griseus.
Format: functional, cell-based
Compound `O=C(O)c1cn(C2CC2)c2cc(N3CCNCC3)c(F)cc2c1=O` [CIPROFLOXACIN] has an IC50 of over 150000 nM.

Each compound was assayed on EJ (assay: Cytotoxicity against human EJ cells assessed as reduction in cell viability by MTT assay). Conditions: not given.
Format: functional, cell-based
`O=C(O)c1cn(C2CC2)c2cc(N3CCNCC3)c(F)cc2c1=O` [CIPROFLOXACIN] was tested, and the IC50 was 137000 to 238000 nM. For `CCn1cc(C(=O)O)c(=O)c2cc(F)c(N3CCNCC3)cc21` [NORFLOXACIN], the IC50 was 137000 to 238000 nM.

The compounds below were run on HL-60 (assay: Antiproliferative activity against human HL60 cells after 72 hrs by MTT assay). Conditions: HL-60, 72 h.
Format: functional, cell-based
Work on `N=C(NS(=O)(=O)c1ccc(C(F)(F)F)cc1)N1CCN(c2cc3c(cc2F)c(=O)c(C(=O)O)cn3C2CC2)CC1` yielded an IC50 of 32 to 161 nM. For `O=C(O)c1cn(C2CC2)c2cc(N3CCNCC3)c(F)cc2c1=O` [CIPROFLOXACIN], the IC50 was over 302 nM. `CCn1cc(C(=O)O)c(=O)c2cc(F)c(N3CCNCC3)cc21` [NORFLOXACIN] gave an IC50 of over 302 nM.

What follows are compounds tested on A549 (assay: Antiproliferative activity against human A549 cells after 72 hrs by MTT assay). Conditions: A549, 72 h.
Format: functional, cell-based
`N=C(NS(=O)(=O)c1ccc(C(F)(F)F)cc1)N1CCN(c2cc3c(cc2F)c(=O)c(C(=O)O)cn3C2CC2)CC1` gave an IC50 of 32 to 161 nM. With `O=C(O)c1cn(C2CC2)c2cc(N3CCNCC3)c(F)cc2c1=O` [CIPROFLOXACIN] the IC50 was over 302 nM. With `CCn1cc(C(=O)O)c(=O)c2cc(F)c(N3CCNCC3)cc21` [NORFLOXACIN] the IC50 was over 302 nM.

These compounds were tested on HL-60 (assay: Antiproliferative activity against human HL60 cells by MTT assay). Conditions: not given.
Format: functional, cell-based
`O=C(O)c1cn(C2CC2)c2cc(N3CCNCC3)c(F)cc2c1=O` [CIPROFLOXACIN] showed an IC50 of at least 100000 nM.

Each compound was assayed on Hep 3B2 (assay: Cytotoxicity against human Hep3B cells assessed as reduction in cell viability by MTT assay). Conditions: not given.
Format: functional, cell-based
`O=C(O)c1cn(C2CC2)c2cc(N3CCNCC3)c(F)cc2c1=O` [CIPROFLOXACIN] showed an IC50 of over 100000 nM.

Each compound was assayed on NCI-H460 (assay: Cytotoxicity against human NCI-H460 cells assessed as reduction in cell viability by SRB assay). Conditions: not given.
Format: functional, cell-based
`O=C(CCCCCn1cc(C(=O)Nc2nc3ccccc3s2)c(=O)c2ccccc21)NO` was tested, and the IC50 was 600 to 1000 nM. `COc1ccc2c(c1)c(=O)c(C(=O)Nc1nc3ccccc3s1)cn2CCCCCC(=O)NO` was tested, and the IC50 was 600 to 16000 nM. `O=C(CCCCCn1cc(C(=O)Nc2nccs2)c(=O)c2ccccc21)NO` gave an IC50 of 5000 to 16000 nM. `O=C(CCCCCn1cc(C(=O)Nc2nc3ccccc3s2)c(=O)c2cc(F)ccc21)NO` showed an IC50 of 600 to 16000 nM. Work on `Cn1nc(-c2ccccc2)cc1NC(=O)c1cn(CCCCCC(=O)NO)c2ccccc2c1=O` yielded an IC50 of 600 to 16000 nM. Work on `Cc1csc(NC(=O)c2cn(CCCCCC(=O)NO)c3ccccc3c2=O)n1` yielded an IC50 of 2430 to 2900 nM. `COc1ccc2c(c1)c(=O)c(C(=O)Nc1cc(-c3ccccc3)nn1C)cn2CCCCCC(=O)NO` was tested, and the IC50 was 600 to 16000 nM. `CC(=O)n1nc2c(c1-c1cccs1)c(=O)[nH]c1ccccc12` gave an IC50 of 160 to 300 nM. `CC(=O)n1cc2c(=O)[nH]c3ccccc3c2n1` gave an IC50 of 160 to 300 nM. Compound `COc1ccc(-c2c3c(=O)[nH]c4ccccc4c3nn2C(C)=O)cc1` has an IC50 of 160 to 300 nM.

These compounds were tested on SMMC-7721 (assay: Antiproliferative activity against human SMMC7721 cells by MTT assay). Conditions: not given.
Format: functional, cell-based
With `O=C(O)c1cn(C2CC2)c2cc(N3CCNCC3)c(F)cc2c1=O` [CIPROFLOXACIN] the IC50 was at least 100000 nM.

What follows are compounds tested on SMMC-7721 (assay: Cytotoxicity against human SMMC7721 cells assessed as reduction in cell viability by MTT assay). Conditions: not given.
Format: functional, cell-based
`O=C(O)c1cn(C2CC2)c2cc(N3CCNCC3)c(F)cc2c1=O` [CIPROFLOXACIN] was tested, and the IC50 was 137000 to 238000 nM.

The compounds below were run on U-251 (assay: Cytotoxicity against human U251 cells assessed as reduction in cell viability by SRB assay). Conditions: not given.
Format: functional, cell-based
Compound `O=C(CCCCCn1cc(C(=O)Nc2nc3ccccc3s2)c(=O)c2ccccc21)NO` has an IC50 of 600 to 1000 nM. With `COc1ccc2c(c1)c(=O)c(C(=O)Nc1nc3ccccc3s1)cn2CCCCCC(=O)NO` the IC50 was 600 to 16000 nM. Work on `O=C(CCCCCn1cc(C(=O)Nc2nccs2)c(=O)c2ccccc21)NO` yielded an IC50 of 5000 to 16000 nM. `O=C(CCCCCn1cc(C(=O)Nc2nc3ccccc3s2)c(=O)c2cc(F)ccc21)NO` showed an IC50 of 600 to 16000 nM. `Cn1nc(-c2ccccc2)cc1NC(=O)c1cn(CCCCCC(=O)NO)c2ccccc2c1=O` gave an IC50 of 600 to 16000 nM. `Cc1csc(NC(=O)c2cn(CCCCCC(=O)NO)c3ccccc3c2=O)n1` gave an IC50 of 2430 to 2900 nM. With `COc1ccc2c(c1)c(=O)c(C(=O)Nc1cc(-c3ccccc3)nn1C)cn2CCCCCC(=O)NO` the IC50 was 600 to 16000 nM. With `CC(=O)n1nc2c(c1-c1cccs1)c(=O)[nH]c1ccccc12` the IC50 was 160 to 300 nM. Work on `CC(=O)n1cc2c(=O)[nH]c3ccccc3c2n1` yielded an IC50 of 160 to 300 nM. `COc1ccc(-c2c3c(=O)[nH]c4ccccc4c3nn2C(C)=O)cc1` gave an IC50 of 160 to 300 nM.

What follows are compounds tested on L1210 (assay: Antiproliferative activity against mouse L1210 cells by MTT assay). Conditions: not given.
Format: functional, cell-based
With `O=C(O)c1cn(C2CC2)c2cc(N3CCNCC3)c(F)cc2c1=O` [CIPROFLOXACIN] the IC50 was at least 100000 nM.

The compounds below were run on CAPAN-1 (assay: Cytotoxicity against human Capan1 cells assessed as reduction in cell viability by MTT assay). Conditions: not given.
Format: functional, cell-based
`O=C(O)c1cn(C2CC2)c2cc(N3CCNCC3)c(F)cc2c1=O` [CIPROFLOXACIN] gave an IC50 of over 100000 nM.

What follows are compounds tested on SK-MEL3 (assay: Cytotoxicity against human SK-MEL-3 cells assessed as reduction in cell viability by MTT assay). Conditions: not given.
Format: functional, cell-based
Compound `O=C(O)c1cn(C2CC2)c2cc(N3CCNCC3)c(F)cc2c1=O` [CIPROFLOXACIN] has an IC50 of 137000 to 238000 nM. `CCn1cc(C(=O)O)c(=O)c2cc(F)c(N3CCNCC3)cc21` [NORFLOXACIN] gave an IC50 of 137000 to 238000 nM.

The compounds below were run on L1210 (assay: Cytotoxicity against mouse L1210 cells assessed as reduction in cell viability). Conditions: not given.
Format: functional, cell-based
Compound `O=C(O)c1cn(C2CC2)c2cc(N3CCNCC3)c(F)cc2c1=O` [CIPROFLOXACIN] has an IC50 of over 150000 nM.
